In paper PMC13672995, “NCR13 peptide protects soybean against Cercospora sojina using multi-faceted modes of action and additive interaction with chemical fungicides” (Journal of Experimental Botany, 2025):
Where no end group is shown, it is not given here.

Key:
B. cinerea = assay: In vitro antifungal activity against B. cinerea; type: cell-based, Botrytis cinerea
C. sojina rRNA = assay: Electrophoretic mobility shift assay (EMSA); type: binding, Cercospora sojina; details: ~200 ng C. sojina RNA, 10 mM Tris–HCl pH 8.0, 1 mM EDTA, 1 h, room temperature
Procedure: To determine the RNA binding ability of NCR13_PFV1, EMSA was performed as described in [Godwin et al. (2024)]. Briefly, total RNA was extracted from C. sojina Cs350 grown in SFM using the ZymoBIOMICS DNA/RNA Miniprep Kit (Zymo Research). Approximately 200 ng of the fungal RNA was mixed with different concentrations of NCR13_PFV1 in 20 μl of binding buffer (10 mM Tris–HCl, pH 8.0, 1 mM EDTA), incubated at room temperature for 1 h, and run through gel electrophoresis.

C. sojina conidia = assay: ROS measurement with H2DCFDA; type: cell-based, Cercospora sojina; details: 1.5 μM peptide, 15 µM H2DCFDA
Procedure: The reactive oxygen species (ROS) indicator dye 2′,7′-dichlorodihydrofluorescein diacetate (H2DCFDA) was used to evaluate ROS induction in C. sojina cells. Cercospora sojina conidia (∼1×10^5 conidia ml^−1) in SFM at various concentrations of iron (FeSO4) were mixed with 15 µM H2DCFDA amd 1.5 µM NCR13_PFV1, and the fluorescence measurements were taken in a Tecan plate reader M200 PRO at excitation and emission wavelengths of 485 nm and 535 nm, respectively, every 30 min for 15 h. ROS induction in C. sojina was visualized using time-lapse confocal microscopy (×63 water immersion objective lens, HC PL Apochromat CS2). The C. sojina conidia grown for 4–5 h in SFM at various concentrations of iron were treated with 15 µM H2DCFDA and 1.5 µM DyLight550-NCR13_PFV1 followed by acquisition of z-stacks using a Leica SP8-X confocal microscope. The excitation and emission wavelengths of DyLight550-NCR13_PFV1 and H2DCFDA were 560 nm, 575–650 nm, and 485 nm, 500–540 nm, respectively.

[1] = system: C. sojina Cs350 conidia and germlings; assay: Plasma membrane permeabilization assay (SYTOX Green); type: cell-based, Cercospora sojina
Procedure: Membrane permeabilization of C. sojina Cs350 by NCR13_PFV1 and azoxystrobin was analyzed by visualizing the influx of SYTOX Green (SG) (Thermo Scientific) using time-lapse confocal microscopy. Germlings grown for 6–8 h or conidia of C. sojina were mixed with various concentrations of NCR13_PFV1, azoxystrobin, or both and 0.5 µM SG and were observed under confocal microscopy at an excitation wavelength of 500 nm and an emission wavelength ranging from 510 nm to 600 nm at specific time intervals. A z-stack at each time point was acquired using a ×63 water immersion objective lens (HC PL Apochromat CS2).

[2] = Peroxidase assay (TMB substrate); type: biochemical; details: heme 5 µM, peptide 5 µM, absorption at 370 nm and 652 nm
Procedure: A Pierce TMB substrate kit (Thermo Scientific) was used to measure the peroxidase activity of heme. In a transparent 96-well plate, 50 µl of TMB substrate and 50 µl of […] were added followed by addition of heme (5 µM) or peptides plus heme (5 µM each). The reaction progression was measured in the Tecan plate reader, by recording UV-vis absorption values at 370 nm and 652 nm for every minute up to 1 h.

[3] = system: C. sojina QoI fungicide-resistant isolate Cs350; type: cell-based, Cercospora sojina
Procedure: In vitro antifungal activity of AFPs and QoI fungicides was determined using 96-well plate assays as described ([Velivelli et al., 2020]) with slight modifications. Briefly, 2- to 3-week-old C. sojina was used to make a conidial suspension in 2× SFM at the final concentration of ∼10^5 conidia ml^−1. Simultaneously, peptide dilutions (in water) at various concentrations were made. Fungicides were dissolved in 50% acetone and 50% water to make a stock solution of 500 µM, and serial dilutions were made in water as needed. The peptide–conidia or the fungicide–conidia mixture at the ratio of 1:1 (45 µl:45 µl) was added in a 96-well plate and incubated at room temperature for 48 h, after which MICs of the peptides/fungicides were calculated based on microscopy as well as the resazurin cell viability assay ([Velivelli et al., 2020]).

TKPCQSDKDCKKFACRKPKVPKCINGFCKCVR (disulfide (positions not given here)) [NCR13_PFV1, chickpea nodule-specific cysteine-rich 32 amino acid peptide, disulfide cross-linking variant 1, expressed in Pichia pastoris]
fold increase in MIC against B. cinerea with increasing iron (B. cinerea; iron from 5 µM to 30 μM): 4 fold
MIC against B. cinerea at low iron (B. cinerea; medium with 5 µM iron): 0.375 µM
MIC against B. cinerea at high iron (B. cinerea; medium with 30 μM iron): 1.5 µM
concentration from which binding to rRNA was observed (C. sojina rRNA): 6 µM
ROS induction (C. sojina conidia): accumulates ROS
ROS level over time at iron >20 μM (C. sojina conidia; read every 30 min for 15 h): did not increase with time
plasma membrane permeabilization (SYTOX Green uptake) ([1]; Cs350, 0.5 µM SG, confocal microscopy): permeabilization of the plasma membrane
time to plasma membrane permeabilization of conidia and germlings ([1]; SYTOX Green uptake): ≤ 10 min
peroxidase activity of heme and FeSO4 in the presence of peptide [2]: not reduced or stopped
MIC in SFM without iron ([3]; 0 μM FeSO4, 2 d): 0.75 µM
change of MIC with calcium supplementation ([3]; CaCl2, up to 20 μM): No change in MIC
MIC in SFM with ≥7.5 μM iron ([3]; FeSO4 up to 60 μM, 2 d): 3 µM
change of MIC with manganese supplementation ([3]; MnSO4, various concentrations): No change in MIC
MIC (μM) against C. sojina, Fungicide resistant, Cs350 ([3]; SFM, ~10^5 conidia ml−1, room temperature, 48 h, resazurin cell viability assay and microscopy): 1.5 µM
change of MIC with zinc supplementation ([3]; ZnSO4, various concentrations): No change in MIC
